Assay results published in PubChem BioAssay AID248 (DTP/NCI, 2004).
Values joined by “and” are separate entries in the source; they are usually repeats but may differ in a detail not shown here. Identical values can stand only once. Toxic doses and inconclusive results are not listed. No stated cut-off is given here; in the data, active means T/C of 150% or more; inactive means T/C below 125%.

Test system: L1210 leukemia ip in BDF1 mice, survival T/C
Assay: NCI In Vivo Anticancer Drug Screen. Data for tumor model L1210 Leukemia (intraperitoneal) in B6D2F1 (BDF1) mice
Details: endpoint: mean survival time, higher = longer survival
How it was run: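 Transplantable tumor model; survival measured in treated vs vehicle control mice. Value = treated/control.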

[1] = dose: 100.0 mg/kg/injection, schedule: Q04DX003 (ip), vehicle: carboxymethylcellulose (CMC)
[2] = dose: 100.0 mg/kg/injection, schedule: Q01DX001 (ip), vehicle: carboxymethylcellulose (CMC)
[3] = dose: 200.0 mg/kg/injection, schedule: Q01DX001 (ip), vehicle: carboxymethylcellulose (CMC)
[4] = dose: 400.0 mg/kg/injection, schedule: Q01DX001 (ip), vehicle: carboxymethylcellulose (CMC)
[5] = dose: 100.0 mg/kg/injection, schedule: Q04DX003 (ip), vehicle: Klucel (hydroxypropylcellulose) (HPC)
[6] = dose: 200.0 mg/kg/injection, schedule: Q04DX003 (ip), vehicle: Klucel (hydroxypropylcellulose) (HPC)
[7] = dose: 400.0 mg/kg/injection, schedule: Q04DX003 (ip), vehicle: Klucel (hydroxypropylcellulose) (HPC)
[8] = dose: 25.0 mg/kg/injection, schedule: Q01DX001 (ip), vehicle: saline
[9] = dose: 50.0 mg/kg/injection, schedule: Q01DX001 (ip), vehicle: saline
[10] = dose: 100.0 mg/kg/injection, schedule: Q01DX001 (ip), vehicle: saline
[11] = dose: 100.0 mg/kg/injection, schedule: Q01DX001 (ip), vehicle: saline with Tween-80
[12] = dose: 200.0 mg/kg/injection, schedule: Q01DX001 (ip), vehicle: saline with Tween-80
[13] = dose: 25.0 mg/kg/injection, schedule: Q01DX009 (ip), vehicle: Klucel (hydroxypropylcellulose) (HPC)
[14] = dose: 50.0 mg/kg/injection, schedule: Q01DX009 (ip), vehicle: Klucel (hydroxypropylcellulose) (HPC)
[15] = dose: 100.0 mg/kg/injection, schedule: Q01DX009 (ip), vehicle: Klucel (hydroxypropylcellulose) (HPC)
[16] = dose: 200.0 mg/kg/injection, schedule: Q01DX009 (ip), vehicle: Klucel (hydroxypropylcellulose) (HPC)
[17] = dose: 200.0 mg/kg/injection, schedule: Q01DX009 (ip), vehicle: saline with Tween-80
[18] = dose: 400.0 mg/kg/injection, schedule: Q01DX001 (ip), vehicle: saline with Tween-80
[19] = dose: 25.0 mg/kg/injection, schedule: Q01DX009 (ip), vehicle: saline with Tween-80
[20] = dose: 50.0 mg/kg/injection, schedule: Q01DX009 (ip), vehicle: saline with Tween-80
[21] = dose: 12.5 mg/kg/injection, schedule: Q01DX009 (ip), vehicle: saline with Tween-80
[22] = dose: 12.5 mg/kg/injection, schedule: Q04DX003 (ip), vehicle: saline with Tween-80
[23] = dose: 25.0 mg/kg/injection, schedule: Q04DX003 (ip), vehicle: saline with Tween-80

Measured: T/C

CC1c2c(c3ccccc3n2C)CC[N+]1(C)C (centres undefined)
inactive: dose: 12.5 mg/kg/injection, schedule: Q01DX009 (ip), vehicle: carboxymethylcellulose (CMC) 109 % of control and 88 % of control | dose: 25.0 mg/kg/injection, schedule: Q01DX009 (ip), vehicle: carboxymethylcellulose (CMC) 115 % of control and 86 % of control | dose: 25.0 mg/kg/injection, schedule: Q04DX002 (ip), vehicle: carboxymethylcellulose (CMC) 102 % of control and 103 % of control | dose: 25.0 mg/kg/injection, schedule: Q04DX003 (ip), vehicle: carboxymethylcellulose (CMC) 102 % of control | dose: 50.0 mg/kg/injection, schedule: Q01DX009 (ip), vehicle: carboxymethylcellulose (CMC) 94 % of control and 88 % of control | dose: 50.0 mg/kg/injection, schedule: Q04DX002 (ip), vehicle: carboxymethylcellulose (CMC) 94 % of control and 99 % of control | dose: 50.0 mg/kg/injection, schedule: Q04DX003 (ip), vehicle: carboxymethylcellulose (CMC) 105 % of control | [1] 116 % of control

CC(=O)OC1C(C)OC(n2cnc3c(=O)[nH]cnc32)C1OC(C)=O (centres undefined)
inactive: dose: 50.0 mg/kg/injection, schedule: Q01DX001 (ip), vehicle: carboxymethylcellulose (CMC) 106 % of control | [2] 106 % of control | [3] 108 % of control | [4] 101 % of control

NNC(=O)C(Sc1ccccc1)c1ccccc1 (centres undefined)
inactive: [5] 95 % of control | [6] 98 % of control | [7] 101 % of control

C1CCN(CN2CCCC2)C1
inactive: [8] 96 % of control | dose: 25.0 mg/kg/injection, schedule: Q01DX009 (ip), vehicle: saline 92 % of control | dose: 25.0 mg/kg/injection, schedule: Q04DX003 (ip), vehicle: saline 98 % of control | [9] 94 % of control | dose: 50.0 mg/kg/injection, schedule: Q01DX009 (ip), vehicle: saline 92 % of control | dose: 50.0 mg/kg/injection, schedule: Q04DX003 (ip), vehicle: saline 105 % of control | [10] 97 % of control and 88 % of control | dose: 100.0 mg/kg/injection, schedule: Q04DX003 (ip), vehicle: saline 88 % of control

CCN(CC)CCC(O)c1cc(-c2ccc(Cl)cc2)nc2ccc(OC)cc12 (centres undefined)
inactive: [2] 94 % of control | [1] 104 % of control | [3] 92 % of control | dose: 200.0 mg/kg/injection, schedule: Q04DX003 (ip), vehicle: carboxymethylcellulose (CMC) 114 % of control | [4] 94 % of control | dose: 400.0 mg/kg/injection, schedule: Q04DX003 (ip), vehicle: carboxymethylcellulose (CMC) 110 % of control

O=C1Nc2ccccc2C12Nc1cccnc1N2 (centres undefined)
inactive: [11] 97 % of control | [12] 87 % of control

CCCCCCc1cc(N=Nc2ccc(S(=O)(=O)Nc3nccs3)cc2)c(O)cc1O
inactive: [2] 95 % of control | [3] 98 % of control | [4] 95 % of control

Cc1ccc(CNC(=S)Nc2ccccc2)c(C)c1
inactive: dose: 100.0 mg/kg/injection, schedule: Q04DX002 (ip), vehicle: Klucel (hydroxypropylcellulose) (HPC) 96 % of control | dose: 200.0 mg/kg/injection, schedule: Q04DX002 (ip), vehicle: Klucel (hydroxypropylcellulose) (HPC) 103 % of control | dose: 400.0 mg/kg/injection, schedule: Q04DX002 (ip), vehicle: Klucel (hydroxypropylcellulose) (HPC) 103 % of control

c1ccc([P+](Cc2cccc3c2Cc2ccccc2-3)(c2ccccc2)c2ccccc2)cc1
inactive: dose: 15.0 mg/kg/injection, schedule: Q01DX001 (ip), vehicle: carboxymethylcellulose (CMC) 104 % of control

NN(CC1=COc2ccccc2O1)Cc1ccccc1
inactive: [13] 100 % of control | dose: 25.0 mg/kg/injection, schedule: Q04DX003 (ip), vehicle: Klucel (hydroxypropylcellulose) (HPC) 92 % of control | [14] 94 % of control | dose: 50.0 mg/kg/injection, schedule: Q04DX003 (ip), vehicle: Klucel (hydroxypropylcellulose) (HPC) 92 % of control | [15] 96 % of control | [5] 92 % of control | [16] 95 % of control | [6] 95 % of control | [7] 97 % of control

CC(CNC(=O)OCc1ccccc1)C(=O)O (centres undefined)
inactive: [11] 95 % of control | dose: 100.0 mg/kg/injection, schedule: Q01DX009 (ip), vehicle: saline with Tween-80 105 % of control and 117 % of control | dose: 100.0 mg/kg/injection, schedule: Q04DX002 (ip), vehicle: saline with Tween-80 103 % of control | dose: 100.0 mg/kg/injection, schedule: Q04DX003 (ip), vehicle: saline with Tween-80 96 % of control | [12] 93 % of control | [17] 105 % of control and 86 % of control | dose: 200.0 mg/kg/injection, schedule: Q04DX002 (ip), vehicle: saline with Tween-80 100 % of control | dose: 200.0 mg/kg/injection, schedule: Q04DX003 (ip), vehicle: saline with Tween-80 91 % of control | [18] 96 % of control | dose: 400.0 mg/kg/injection, schedule: Q01DX009 (ip), vehicle: saline with Tween-80 94 % of control and 105 % of control | dose: 400.0 mg/kg/injection, schedule: Q04DX002 (ip), vehicle: saline with Tween-80 110 % of control | dose: 400.0 mg/kg/injection, schedule: Q04DX003 (ip), vehicle: saline with Tween-80 95 % of control

O=C(O)CCn1ccc2ccccc21
inactive: [5] 97 % of control | [6] 97 % of control | [7] 97 % of control

CC(=O)NC(CSSCC(NC(C)=O)C(=O)OC(C)=O)C(=O)O (centres undefined)
inactive: [8] 102 % of control | [9] 96 % of control | [10] 93 % of control

CCN=C(N)c1ccc(NC(=O)c2ccc(C(=O)Nc3ccc(C(N)=NCC)cc3)cc2)cc1
inactive: dose: 1.0 mg/kg/injection, schedule: Q01DX Z (ip), vehicle: other 115 % of control | dose: 2.0 mg/kg/injection, schedule: Q01DX Z (ip), vehicle: other 91 % of control | dose: 8.0 mg/kg/injection, schedule: Q01DX Z (ip), vehicle: carboxymethylcellulose (CMC) 100 % of control

O=C1/C(=C\c2ccccc2Cl)N2CCC1CC2
inactive: [11] 94 % of control | [12] 109 % of control | [18] 93 % of control

O=NN(CC(=O)O)c1cccnc1
inactive: [13] 98 % of control | [14] 101 % of control | [15] 107 % of control

COc1ccccc1/C=N/NC(=O)c1cccc2ccccc12
inactive: dose: 400.0 mg/kg/injection, schedule: Q01DX001 (ip), vehicle: saline 87 % of control

COC(=O)c1ccccc1NC(=S)NC(=O)c1ccccc1F
inactive: [19] 93 % of control | [20] 92 % of control | [17] 91 % of control

CCOC(=O)C(C(=O)OCC)C(CC(=O)c1ccccc1)c1ccccc1 (centres undefined)
inactive: [15] 98 % of control | [16] 93 % of control | dose: 400.0 mg/kg/injection, schedule: Q01DX009 (ip), vehicle: Klucel (hydroxypropylcellulose) (HPC) 94 % of control

CN(C)CCC(C=NCC(CCN(C)C)(CCN(C)C)c1cccc2ccccc12)(CCN(C)C)c1cccc2ccccc12
inactive: [21] 90 % of control | [22] 102 % of control | [19] 91 % of control | [23] 98 % of control

COC(=O)C1C(O)CC2CCC1[N+]2(C)C (centres undefined)
inactive: [10] 96 % of control | dose: 200.0 mg/kg/injection, schedule: Q01DX001 (ip), vehicle: saline 100 % of control

CC(=O)OC1CCC2(C)C(=CCC3C4C/C(=C\N5CCCC5)C(=O)C4(C)CCC32)C1 (centres undefined)
inactive: [11] 93 % of control | [12] 90 % of control | [18] 90 % of control

IC1CCCOC1[n+]1ccccc1 (centres undefined)
inactive: [21] 102 % of control | [22] 96 % of control | [19] 100 % of control | [23] 104 % of control | [20] 103 % of control | dose: 50.0 mg/kg/injection, schedule: Q04DX003 (ip), vehicle: saline with Tween-80 98 % of control

Nc1nc(N)c2ncn(C3CC(CO)C(O)C3O)c2n1 (centres undefined)
inactive: dose: 6.25 mg/kg/injection, schedule: Q01DX009 (ip), vehicle: saline with Tween-80 91 % of control | [21] 98 % of control | [19] 102 % of control
